# Laboratory results as given in patent publication US20150086557A1, “NOVEL INTEGRIN alpha9 beta1 LIGAND AND USES THEREOF” (OSAKA UNIVERSITY, priority 2012, published 2015).
# Assays:
# integrin α9β1 = biological target: T1, integrin α9β1 (Homo sapiens, UniProt P05556+Q13797); assay: Integrin α9β1-pol-C binding inhibition assay with synthetic peptides; conditions: integrin α9β1 10 nM, pol-C 10 nM, 1 mM MnCl2, 10% DMSO, FIG. 15
# T1 construct: A cDNA encoding the extracellular region of human integrin α9; An expression vector for the extracellular region of integrin β1; ACID coiled-coil (Velcro) peptide; FLAG; BASE coiled-coil (Velcro) peptide; made in house; host or cells: FreeStyle 293 Expression System (293-F cells)
# T1 sequence (Q13797 30-981 limits assumed): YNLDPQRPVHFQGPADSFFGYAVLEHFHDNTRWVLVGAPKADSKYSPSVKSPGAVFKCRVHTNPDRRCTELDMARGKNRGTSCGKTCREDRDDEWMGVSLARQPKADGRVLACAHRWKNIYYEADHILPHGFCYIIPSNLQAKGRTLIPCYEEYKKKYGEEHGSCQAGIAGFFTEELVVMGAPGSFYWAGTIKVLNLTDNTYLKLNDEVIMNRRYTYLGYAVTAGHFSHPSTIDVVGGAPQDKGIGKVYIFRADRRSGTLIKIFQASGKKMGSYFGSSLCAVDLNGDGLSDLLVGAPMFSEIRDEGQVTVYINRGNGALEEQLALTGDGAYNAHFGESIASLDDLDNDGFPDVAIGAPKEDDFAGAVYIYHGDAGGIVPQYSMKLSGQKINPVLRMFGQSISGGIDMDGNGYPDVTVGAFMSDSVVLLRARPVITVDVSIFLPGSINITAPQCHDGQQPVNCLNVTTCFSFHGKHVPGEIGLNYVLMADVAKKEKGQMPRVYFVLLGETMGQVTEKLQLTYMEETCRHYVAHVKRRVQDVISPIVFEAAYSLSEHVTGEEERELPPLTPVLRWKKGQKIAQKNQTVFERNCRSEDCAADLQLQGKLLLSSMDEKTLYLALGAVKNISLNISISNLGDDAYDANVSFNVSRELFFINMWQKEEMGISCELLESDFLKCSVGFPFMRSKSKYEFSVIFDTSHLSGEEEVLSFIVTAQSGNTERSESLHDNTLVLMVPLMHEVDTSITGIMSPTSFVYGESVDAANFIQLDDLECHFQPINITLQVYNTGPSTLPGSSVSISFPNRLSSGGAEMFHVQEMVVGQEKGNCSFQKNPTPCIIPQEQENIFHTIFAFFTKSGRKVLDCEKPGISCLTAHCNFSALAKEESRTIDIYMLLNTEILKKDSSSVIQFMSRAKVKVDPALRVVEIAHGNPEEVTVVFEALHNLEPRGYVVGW
# T1 sequence (P05556 21-728 limits assumed): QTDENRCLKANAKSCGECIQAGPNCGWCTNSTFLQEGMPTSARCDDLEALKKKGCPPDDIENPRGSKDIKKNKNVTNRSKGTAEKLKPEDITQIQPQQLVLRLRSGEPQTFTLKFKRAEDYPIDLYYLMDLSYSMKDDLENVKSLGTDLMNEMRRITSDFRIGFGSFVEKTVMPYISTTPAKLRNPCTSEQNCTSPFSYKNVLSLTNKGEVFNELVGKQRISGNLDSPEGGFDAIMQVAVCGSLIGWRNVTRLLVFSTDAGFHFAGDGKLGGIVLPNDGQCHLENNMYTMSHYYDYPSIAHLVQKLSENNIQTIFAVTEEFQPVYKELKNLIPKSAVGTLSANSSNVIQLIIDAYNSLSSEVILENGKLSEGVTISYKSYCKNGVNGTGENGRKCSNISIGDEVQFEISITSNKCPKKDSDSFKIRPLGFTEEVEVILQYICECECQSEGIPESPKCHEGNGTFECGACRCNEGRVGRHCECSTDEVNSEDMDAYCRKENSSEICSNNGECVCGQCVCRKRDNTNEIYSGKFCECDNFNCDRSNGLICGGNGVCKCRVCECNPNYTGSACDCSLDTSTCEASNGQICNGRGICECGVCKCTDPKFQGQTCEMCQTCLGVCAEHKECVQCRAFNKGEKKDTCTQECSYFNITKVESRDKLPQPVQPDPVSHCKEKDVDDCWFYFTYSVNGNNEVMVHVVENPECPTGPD
# Description: An integrin binding assay was performed as described in the above-mentioned publication Matrix Biol. 25, […], (2006). In some experiments, integrins were preincubated with synthetic peptides at various concentrations to evaluate the inhibitory activities of the synthetic peptides. The apparent dissociation constants were determined as described in Nishiuchi, R., Murayama, O., Fujiwara, H., Gu, J., Kawakami. T., Aimoto, S., Wada, Y., and Sekiguchi, K. (2003) J. Biochem, 134, 497-504.
# To further corroborate the role of EDDMMEVPY as the integrin α9β1 recognition sequence, an integrin α9β1-pol-C binding inhibition assay was performed using synthetic peptides consisting of the EDDMMEVPY sequence or a part of the sequence, Integrin α9β1 (10 nM) was incubated on microtiter plates coated with pol-C (10 nM) in the presence of 1 mM MnCl2 and various concentrations of the synthetic peptides. To prevent precipitation of the peptides, the assay was performed in the presence of 10% DMSO. Based on the amount of integrin α9β1 bound to pol-C set as 100%, the relative binding amount was calculated.
# cardiac stem cells [1] = assay: Colony forming ability of GFP label-retaining cells (cardiac stem cells); assay type: cell-based, mouse; conditions: 100 nM coating, 1×10^4 cells/well, 2 weeks, FIG. 26
# Source text: (§1) Tissue stem cells are known to generally have a very prolonged, cell cycle and thus allow labeling compounds incorporated into DNA and the cell interior to remain stable for a long period of time without decay along with cell division, This nature can be advantageously used to identify and separate tissue stem cells by short-term labeling or cells with a nucleotide analog such as bromodeoxyuridine (BrdU) or a fusion protein of green fluorescent protein (hereinafter referred to as “GFP”) and a nucleoprotein, histone, followed by selection of cells retaining the label for a long period of time (label-retaining cells). In this experiment, with the use of a tetracycline-inducible expression system in combination with the ROSA26 promoter, a fusion protein of GFP and histone H2B (H2B-GFP) was expressed in the heart of a mouse for 2 weeks starting 1 week before birth, and 6 weeks later, cardiac stem cells were separated as GFP label-retaining cells from the heart.
# To explore whether cardiac stem cells proliferate on a polydom-coated plate, colony formation was measured, as an indicator of proliferation. A Falcon 6-well plate was coated with 800 μl/well of 100 nM polydom or fibronectin at 4° C. overnight. GFP label-retaining cells were collected by FACSAria and suspended in IMDM containing 10% fetal calf serum. […] After drying, the number of colonies was counted under a microscope.
# hematopoietic stem cells [2] = assay: FACS analysis of differentiation of hematopoietic stem cells on coated wells; assay type: cell-based, mouse; conditions: day 3 of culture on coated well, FIG. 19
# Description: (§2) Bone marrow cells were flushed out from the femurs and tibias of three mice of 6 to 7 weeks of age (C57BL/6J) and dissociated with a 22G needle. The cells were reacted with a biotin-labeled anti-lineage antibody for 30 minutes and subsequently with an anti-blotin antibody-conjugated magnetic beads, and lineage-positive cells were removed by automated magnetic cell sorter autoMACS (Miltenyi Biotec). After staining with PE-CD3, PE-Mac1, PE-Gr1, PE-Ter119, PE-B220, FTTC-Sca1 and APC-c-Kit, a lineage(−) Sca1(+) c-Kit (high) cell fraction was sorted out using FACSAria and used for the experiments described below.
# (§3) The above-prepared cells were plated on a 48-well plate coated with a recombinant polydom protein or fibronectin. The same type of plate without coating was used as a control. The medium used was RPMI containing 10% fetal calf serum, thrombopoietin (30 ng/ml) and flt3 ligand (100 ng/ml). For the examination of cell proliferation, the cells were plated in duplicate wells for each coating at 1000 cells/well and started to be cultured, and the cell number was counted at the start of culture, and on day 2 and day 3. The remaining cells were divided into three aliquots, plated in wells for each coating, and subjected to FACS analysis on day 3 after the start of culture. For the FACS analysis, staining with an antibody cocktail containing PE-CD3, PE-Mac1, PE-Gr1, PE-Ter119, PE-B220, FITC-Sca1 and APC-c-Kit was performed and FACSCont was used.
# cardiac stem cells [3] = assay: Cell adhesion assay using GFP label-retaining cells (cardiac stem cells); assay type: cell-based, mouse; conditions: 100 nM coating, 12 hours, serum-free IMDM, FIG. 25
# Source text: as §1
# To explore whether polydom serves as a scaffold for integrin α9β1-expressing cardiac stem cells, cardiac stem cells were separated as GFP label-retaining cells and subjected to a cell adhesion assay. A 96-well immuno plate (Nunc Maxisorp) was coated with 50 μl/well of 100 nM polydom or fibronectin at 4° C. overnight, GFP label-retaining cells were collected by FACSAria and suspended at 1×10^6 cells/ml in serum-free Iscove's Modified Dulbecco Medium (hereinafter referred to as “IMDM”). The cell suspension was plated at 100 μl/well and cultured in a 5% CO2 incubator at 37° C. for 12 hours. After three washes with PBS, the cells were fixed with 100 μl/well of 3.7% formalin for 15 minutes. Then, the cells were incubated with 0.5% toluidine blue (150 μl/well) for 10 minutes and washed with MilliQ water. After drying, the number of attached cells was counted under a microscope.
# hematopoietic stem cells [4] = assay: Proliferation of hematopoietic stem cells on coated plates; assay type: cell-based, mouse
# Description: as §2, §3
# The above-prepared cells were divided into three groups and plated on 48-well plates at 5000 cells/well. The medium used was RPMI containing 10% fetal calf serum, thrombopoietin (30 ng/ml) and flt3 ligand (100 ng/ml). For an EDDMMEVPY peptide treatment group, 2 μl of the peptide was added to each well at the final concentration of 50 μM, and for the other two groups, 2 μl of PBS was added to each well. Then, the culture was performed at […] for 2 hours. Subsequently, the cells were transferred to 48-well plates coated with a recombinant polydom protein or fibronectin. The cells cultured in the presence of the peptide were transferred to the recombinant polydom protein-coated plate, and the cells in one of the other two groups were transferred to the recombinant polydom protein-coated plate, and the cells in the remaining group were transferred to the fibronectin-coated plate. The culture was continued for 3 days and the cell numbers were counted on day 2, day 3 and […].
# [5] = biological target: integrin α9β1 on RD cells (human rhabdomyosarcoma cells) (human) (UniProt Q13797); assay: cell-based or functional assay
# Chain of integrin α9β1 on RD cells (human rhabdomyosarcoma cells) (human) (Q13797 30-1035, chain 1 of 2): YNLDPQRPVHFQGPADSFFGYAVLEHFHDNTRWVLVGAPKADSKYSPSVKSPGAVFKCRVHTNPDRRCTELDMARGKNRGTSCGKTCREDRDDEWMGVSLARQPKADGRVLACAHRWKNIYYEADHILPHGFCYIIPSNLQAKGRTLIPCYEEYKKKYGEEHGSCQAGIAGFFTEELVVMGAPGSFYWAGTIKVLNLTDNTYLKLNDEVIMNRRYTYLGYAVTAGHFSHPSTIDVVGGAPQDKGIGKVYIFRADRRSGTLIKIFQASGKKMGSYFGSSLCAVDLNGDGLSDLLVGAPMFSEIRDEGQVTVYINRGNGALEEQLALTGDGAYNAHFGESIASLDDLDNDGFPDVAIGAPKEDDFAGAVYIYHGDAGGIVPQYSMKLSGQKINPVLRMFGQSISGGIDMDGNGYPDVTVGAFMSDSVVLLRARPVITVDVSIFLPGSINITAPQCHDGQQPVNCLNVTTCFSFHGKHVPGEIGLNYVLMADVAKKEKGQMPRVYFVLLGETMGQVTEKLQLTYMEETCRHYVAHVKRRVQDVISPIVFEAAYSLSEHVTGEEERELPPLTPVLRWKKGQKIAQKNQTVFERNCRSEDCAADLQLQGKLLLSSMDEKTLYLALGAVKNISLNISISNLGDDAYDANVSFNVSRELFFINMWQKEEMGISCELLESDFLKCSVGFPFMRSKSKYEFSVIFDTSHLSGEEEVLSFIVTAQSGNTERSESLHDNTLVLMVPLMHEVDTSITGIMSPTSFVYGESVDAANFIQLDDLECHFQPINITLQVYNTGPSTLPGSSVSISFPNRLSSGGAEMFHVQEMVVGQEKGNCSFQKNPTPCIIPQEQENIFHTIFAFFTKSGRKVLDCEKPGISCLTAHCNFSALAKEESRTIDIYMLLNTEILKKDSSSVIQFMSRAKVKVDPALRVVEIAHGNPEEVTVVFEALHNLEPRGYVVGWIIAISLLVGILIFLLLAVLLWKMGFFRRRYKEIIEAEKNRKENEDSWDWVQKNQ
# Chain of integrin α9β1 on RD cells (human rhabdomyosarcoma cells) (human) (P05556 21-798, chain 2 of 2, further chain): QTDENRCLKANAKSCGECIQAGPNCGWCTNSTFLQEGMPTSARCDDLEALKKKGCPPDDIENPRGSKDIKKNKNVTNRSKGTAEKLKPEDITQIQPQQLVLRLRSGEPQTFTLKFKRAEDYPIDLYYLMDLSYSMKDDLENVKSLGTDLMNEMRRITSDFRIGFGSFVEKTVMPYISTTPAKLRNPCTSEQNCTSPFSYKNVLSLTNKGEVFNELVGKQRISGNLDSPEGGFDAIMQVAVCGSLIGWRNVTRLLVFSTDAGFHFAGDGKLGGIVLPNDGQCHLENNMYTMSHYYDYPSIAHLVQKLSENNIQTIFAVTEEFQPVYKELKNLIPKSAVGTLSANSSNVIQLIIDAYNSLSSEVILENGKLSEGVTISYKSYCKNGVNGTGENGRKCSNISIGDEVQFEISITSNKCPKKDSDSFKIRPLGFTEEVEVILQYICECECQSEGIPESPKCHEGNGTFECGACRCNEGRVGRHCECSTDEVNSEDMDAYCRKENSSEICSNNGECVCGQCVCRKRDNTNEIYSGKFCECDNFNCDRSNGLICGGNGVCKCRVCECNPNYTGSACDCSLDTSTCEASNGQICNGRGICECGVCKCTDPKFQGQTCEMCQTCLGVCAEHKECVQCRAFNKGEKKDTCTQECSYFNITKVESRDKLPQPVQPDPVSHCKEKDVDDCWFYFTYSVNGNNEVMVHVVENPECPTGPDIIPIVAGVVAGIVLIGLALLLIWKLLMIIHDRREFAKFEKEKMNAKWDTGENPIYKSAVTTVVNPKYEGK
substance,measurement,setting,value
DMMEVPY,inhibitory potency toward binding of integrin α9β1 to pol-C,integrin α9β1,nearly as potent as EDDMMEVPY
TYSSPEDGIHE [reference compound],inhibitory potency toward binding of integrin α9β1 to pol-C,integrin α9β1,barely inhibitory
fibronectin [reference compound],colony forming activity (colony count relative to the number of cells plated),cardiac stem cells [1],about 0.4%
same,expression of c-Kit on hematopoietic stem cells,hematopoietic stem cells [2],increased expression of c-Kit
same,adhesion of cardiac stem cells to coated plate,cardiac stem cells [3],a large number of the cells adhered
same,proliferation of hematopoietic stem cells on coated wells,"hematopoietic stem cells [4]; 1000 cells/well, counted to day 3, versus uncoated control, FIG. 18",proliferated as with the control
same,proliferation of hematopoietic stem cells on coated plate after PBS pretreatment,"hematopoietic stem cells [4]; 5000 cells/well, counted day 2 to day 4, FIG. 20",proliferated
full-length polydom (recombinant mouse SVEP1) (from UniProt A2AVA0 18-3567) (ligand),adhesion of RD cells to coated full-length polydom,[5],3 µg/mL
